Assay results from ChEMBL document CHEMBL5614384, “Synthesis and antiproliferative activity of (-)-cleistenolide, (6S)-cleistenolide and 4-substituted cleistenolide analogues” (Bioorg Med Chem, 2024).

Key:
[1] = (§1) Cytotoxicity against human MRC5 cells assessed as inhibition of cell growth incubated for 72 hrs by MTT assay; assay type: toxicity, cell-based; conditions: human, MRC5 cells
HeLa [2] = assay: Antiproliferative activity against human HeLa cells assessed as inhibition of cell growth incubated for 72 hrs by MTT assay; assay type: functional, cell-based
K562 [3] = assay: Antiproliferative activity against human K562 cells assessed as inhibition of cell growth incubated for 72 hrs by MTT assay; assay type: functional, cell-based; conditions: K562, 72 h
MCF7 [4] = assay: Antiproliferative activity against estrogen receptor positive human MCF7 cells assessed as inhibition of cell growth incubated for 72 hrs by MTT assay; assay type: functional, cell-based; conditions: MCF7, 72 h
Raji [5] = assay: Antiproliferative activity against human Raji cells assessed as inhibition of cell growth incubated for 72 hrs by MTT assay; assay type: functional, cell-based
HL-60 = assay: Antiproliferative activity against human HL-60 cells assessed as inhibition of cell growth incubated for 72 hrs by MTT assay; assay type: functional, cell-based; conditions: HL-60, 72 h
Jurkat = assay: Antiproliferative activity against human Jurkat cells assessed as inhibition of cell growth incubated for 72 hrs by MTT assay; assay type: functional, cell-based
MDA-MB-231 = assay: Antiproliferative activity against estrogen receptor negative human MDA-MB-231 cells assessed as inhibition of cell growth incubated for 72 hrs by MTT assay; assay type: functional, cell-based; conditions: MDA-MB-231, 72 h
A549 [6] = assay: Antiproliferative activity against human A549 cells assessed as inhibition of cell growth incubated for 72 hrs by MTT assay; assay type: functional, cell-based; conditions: A549, 72 h
K562 [7] = assay: Potency index, ratio of cleistenolide IC50 to test compound IC50 for antiproliferative activity against human K562 cells assessed as inhibition of cell growth incubated for 72 hrs by MTT assay; assay type: functional
Raji [8] = assay: Potency index, ratio of cleistenolide IC50 to test compound IC50 for antiproliferative activity against human Raji cells assessed as inhibition of cell growth incubated for 72 hrs by MTT assay; assay type: functional
HeLa [9] = assay: Potency index, ratio of cleistenolide IC50 to test compound IC50 for antiproliferative activity against human HeLa cells assessed as inhibition of cell growth incubated for 72 hrs by MTT assay; assay type: functional
A549 [10] = assay: Potency index, ratio of cleistenolide IC50 to test compound IC50 for antiproliferative activity against human A549 cells assessed as inhibition of cell growth incubated for 72 hrs by MTT assay; assay type: functional
A549 [11] = assay: Potency index, ratio of doxorubicin IC50 to test compound IC50 for antiproliferative activity against human A549 cells assessed as inhibition of cell growth incubated for 72 hrs by MTT assay; assay type: functional
MCF7 [12] = assay: Potency index, ratio of cleistenolide IC50 to test compound IC50 for antiproliferative activity against human MCF7 cells assessed as inhibition of cell growth incubated for 72 hrs by MTT assay; assay type: functional
MRC5 = assay: as §1; assay type: toxicity, cell-based; conditions: mrc5

| SMILES | IC50 at 72 h [1] [µM] | IC50 (HeLa [2]) [µM] | IC50 (K562 [3]) [µM] | IC50 (MCF7 [4]) [µM] | IC50 (Raji [5]) [µM] | IC50 (HL-60) [µM] | IC50 (Jurkat) [µM] | IC50 (MDA-MB-231) [µM] | IC50 (A549 [6]) [µM] | Ratio IC50 (K562 [7]) | Ratio IC50 (Raji [8]) | Ratio IC50 (HeLa [9]) | Ratio IC50 (A549 [10]) | Ratio IC50 (A549 [11]) | Ratio IC50 (MCF7 [12]) | IC50 (MRC5) [µM] |
| --- | --- | --- | --- | --- | --- | --- | --- | --- | --- | --- | --- | --- | --- | --- | --- | --- |
| CC(=O)O[C@@H]1C=CC(=O)O[C@@H]1[C@@H](COC(=O)c1ccccc1)OC(C)=O | > 100 |  |  |  |  |  |  |  |  |  |  |  |  |  |  |  |
| CC(=O)O[C@H](COC(=O)c1ccccc1)[C@H]1OC(=O)C=C[C@H]1O[Si](C)(C)C(C)(C)C | > 100 | 9.96 | 6.72 | 4.14 | 18.8 | 11.6 | 16.7 | 35.4 | 12.1 |  |  |  |  |  |  |  |
| CC(=O)O[C@H](COC(=O)c1ccccc1)[C@H]1OC(=O)C=C[C@H]1OC(=O)/C=C/c1ccccc1 | > 100 | 7 | 0.76 | 22.5 | 3.3 | 6.36 | 11.8 | 4.29 | 8.55 | >10 | >10 |  |  |  |  |  |
| CC(=O)O[C@H](COC(=O)c1ccccc1)[C@H]1OC(=O)C=C[C@H]1O[Si](c1ccccc1)(c1ccccc1)C(C)(C)C | > 100 | 3.35 | 5.85 | 9.39 | 25.1 | 5.64 | 19.7 | 8.36 | 30.6 |  |  | >2 |  |  |  |  |
| COc1ccc(/C=C/C(=O)O[C@@H]2C=CC(=O)O[C@@H]2[C@@H](COC(=O)c2ccccc2)OC(C)=O)cc1 | > 100 | 15.6 | 1.28 | 12.8 | 25.7 | 15.3 | 24.1 | 26.6 | 41.6 | 5 |  |  |  |  |  |  |
| COc1ccc(/C=C/C(=O)O[C@@H]2C=CC(=O)O[C@@H]2[C@@H](COC(=O)c2ccccc2)OC(C)=O)cc1OC | > 100 | 8.73 | 4.52 | 6.35 | 26.4 | 5.75 | 22.6 | 15.9 | 13.6 |  |  |  |  |  |  |  |
| CC(=O)O[C@@H](COC(=O)c1ccccc1)[C@H]1OC(=O)C=C[C@H]1OC(C)=O | 98.2 | 6.79 | 5.58 | 15.1 | 13.1 | 9.84 | 15.5 | 23.7 | 16.2 |  |  |  |  |  |  |  |
| CC(=O)O[C@H](COC(=O)c1ccccc1)[C@H]1OC(=O)C=C[C@H]1OC(=O)/C=C/c1ccc([N+](=O)[O-])cc1 | > 100 | 13.3 | 5.82 | 21.3 | 25 | 24.5 | 23.5 | 15.5 | 2.55 |  |  |  | >6 | ~2 |  |  |
| O=C1C=C[C@@H](O)[C@@H]([C@@H](O)COC(=O)c2ccccc2)O1 | > 100 | 4.69 | 1.23 | 10.5 | 11.3 | 12.3 | 15.3 | 14.1 | 19.9 | 5 |  |  |  |  |  |  |
| COc1cccc(C(=O)O[C@@H]2C=CC(=O)O[C@@H]2[C@@H](COC(=O)c2ccccc2)OC(C)=O)c1 | > 100 | 9.43 | 1.59 | 8.79 | 25.2 | 1.7 | 25.3 | 25.6 | 12.1 | 5 |  |  |  |  |  |  |
| O=C1C=C[C@@H](OCc2ccccc2)[C@@H]([C@@H](COC(=O)c2ccccc2)OCc2ccccc2)O1 | > 100 | 8.3 | 0.67 | 5.9 | 19.2 | 3.34 | 12 | 19.2 | 12.9 | >10 |  |  |  |  |  |  |
| CC(=O)O[C@H](COC(=O)c1ccccc1)[C@H]1OC(=O)C=C[C@H]1OS(C)(=O)=O |  | 14.2 | 8.78 | 3.26 | 17 | 3.63 | 15.2 | 14.9 | 11.3 |  |  |  |  |  | ~8 | > 100 |
| CC1(C)O[C@H]2O[C@@H]3C=CC(=O)O[C@@H]3[C@H]2O1 | > 100 | 6.09 | 3.4 | 8.26 | 29.4 | 22.3 | 27.2 | 24.4 | 16.5 |  |  |  |  |  |  |  |
| CC(=O)O[C@H](COC(=O)c1ccccc1)[C@H]1OC(=O)C=C[C@H]1OC(=O)/C=C/c1ccc(F)cc1 | > 100 | 17.9 | 6.75 | 5.28 | 26.4 | 16.1 | 28.6 | 17.7 | 87.6 |  |  |  |  |  |  |  |
| CC(=O)OC[C@@H](O)[C@H]1OC(=O)C=C[C@H]1O | > 100 | 5.36 | 1.18 | 4.58 | 19.8 | 9.62 | 17.5 | 45.6 | 12.5 | 5 |  |  |  |  |  |  |
| CC(=O)O[C@H](COC(=O)c1ccccc1)[C@H]1OC(=O)C=C[C@H]1OC(=O)C(c1ccccc1)c1ccccc1 | > 100 | 9.75 | 6.32 | 2.83 | 14 | 4.64 | 14.5 | 17.6 | 11 |  |  |  |  |  | >9 |  |
| CC(=O)O[C@H](COC(=O)c1ccccc1)[C@H]1OC(=O)C=C[C@H]1OC(=O)c1c(Cl)cc(Cl)cc1Cl | > 100 | 8.71 | 11.9 | 28.4 | 23.6 | 22.9 | 9.4 | 23.4 | 5.02 |  |  |  |  |  |  |  |
| CC(=O)OC[C@@H](OC(C)=O)[C@H]1OC(=O)C=C[C@H]1OC(=O)c1ccccc1 | > 100 | 10.8 | 2.65 | 5.01 | 10.7 | 4.39 | 18.3 | 15.9 | 22.9 |  |  |  |  |  |  |  |
| CC(=O)O[C@H](COC(=O)c1ccccc1)[C@H]1OC(=O)C=C[C@H]1OS(=O)(=O)c1ccc(C)cc1 | > 100 | 15.8 | 4.5 | 11.3 | 18.9 | 20.9 | 26.6 | 14.8 | 12.4 |  |  |  |  |  |  |  |
| CC(=O)OC[C@@H](OC(C)=O)[C@H]1OC(=O)C=C[C@H]1OCc1ccccc1 | > 100 | 6.17 | 1.12 | 15.5 | 11.7 | 1.39 | 19 | 16.1 | 23.2 | 5 |  |  |  |  |  |  |
